Measurements: paper PMC9043270, “β-Blockers bearing hydroxyethylamine and hydroxyethylene as potential SARS-CoV-2 Mpro inhibitors: rational based design, in silico, in vitro, and SAR studies for lead optimization” (RSC Advances, 2021)

Molecular target: T1, SARS-CoV-2 Mpro (3CL protease) (Severe acute respiratory syndrome coronavirus 2, UniProt P0DTD1)
T1 construct: gene rep
Assay: fluorogenic substrate 3CL protease assay kit
Assay type: biochemical
Settings: read-out: IC50 (μg ml^-1) (converted)
Description: fluorogenic substrate 3CL protease assay kit on SARS-CoV-2 Mpro (3CL protease)

Cc1cccc(C)c1OCC(=O)N[C@@H](Cc1ccccc1)[C@@H](O)C[C@H](Cc1ccccc1)NC(=O)[C@H](C(C)C)N1CCCNC1=O [Lopinavir]
IC50: 117 µM

CC(C)NCC(O)COc1ccc(COCCOC(C)C)cc1 (stereo not shown) [compound 8, Bisoprolol]
IC50: 364 µM

COc1ccccc1OCCNCC(O)COc1cccc2[nH]c3ccccc3c12 (stereo not shown) [compound 17, Carvedilol]
IC50: 503 µM

OC(CNCC(O)C1CCc2cc(F)ccc2O1)C1CCc2cc(F)ccc2O1 (stereo not shown) [compound 20, Nebivolol]
IC50: 148 µM
